In patent US11035851B2, “Method of identifying cosmetic agents for moisturizing skin” (The Procter & Gamble Company, priority 2016, dated 2021):

Tested on: epidermal gene expression (GeneTitan U219 probes)
Experiment: Genomic evaluation of LCM-derived epidermal samples before vs. after surfactant (SLS) challenge, leg controlled application test
Format: in vivo, human
Conditions: for Significant Beyond Chance / Number of Probes (significantly different): summer, after 5 day 1% SLS treatment vs. baseline; for Number of Probes (significantly different): p<0.05, approximately 2465 probes expected by chance
Description: 25 ng of purified RNA is converted to biotin-labeled cRNA copies using the Affymetrix HT 3′ IVT Express kit (Cat. #901253) and protocol provided as executed on a Beckman Biomek® FX^p Laboratory Automation Workstation (Beckman Cat. #A31842), or equivalent. In brief, 500 ng of total RNA is reverse-transcribed into cDNA copies using oligo-dT primers and reverse transcriptase followed by second strand synthesis using DNA polymerase I. Following purification, the cDNA library is used as a template for generating biotin-labeled cRNA copies using T7 RNA polymerase and biotinylated dUTP. Biotinylated cRNA is fragmented by limited alkaline hydrolysis and then hybridized overnight to Affymetrix GeneTitan® U219 array plates using the Affymetrix GeneTitan® instrument and protocol provided. Following processing, chip images are converted to numeric data using the PLIER algorithm as executed in the Affymetrix GeneChip Expression Console.
A clinical study was conducted to conduct a genomic evaluation of subjects with inherently dry skin versus subjects with inherently normal moisturized skin in the winter season (phase 1) and summer season (phase 2. The clinical study design for each phase was a leg controlled application test (LCAT) protocol. The phase 2 portion of the test also included a determination of genomic differences between subjects that are treated with a drying agent (“surfactant challenged”).
Phase 2 clinical design: human subjects from phase 1 were recalled during the summer season (i.e., June-August) and maintained in their respective cohort groups. A cohort of 29 subjects was recalled for the inherently dry skin group, while a cohort of 12 subjects was recalled for the inherently normal moisturized skin group. All subjects were pre-conditioned with Olay® soap bar for 7 days (days −7 to −1) followed by a 2 day regression. Subjects were instructed to abstain from washing their legs with any products and from using any leave-on products on their legs during the pretreatment period. Dry Skin Grade measurements, full thickness biopsies, and other skin health measurements (e.g., TEWL) were taken on day 1. Subjects with a dry skin score of greater than 4.0 were excluded from biopsies. The full thickness biopsies were later separated into epidermal and dermal sections via LCM, and the epidermal section was used for genomic analysis.
On days 3-7 (5 consecutive days) subjects who have a Dryness Grade less than 3.0 on one or both legs continue on the study, all other subjects were excused from the study. The clinical staff conducted visual grading at a site adjacent to the biopsy site, followed by a surfactant challenge (i.e., treating the site with 1% sodium lauryl sulfate (“SLS”) solution and occluding the site with a Hill Top Chamber® brand occlusive patch test system for 30 minutes). Each day the dryness was visually graded prior to the SLS treatment. On day 8 (24 hrs. following Day 7), bio-instruments measures were taken, but biomarkers and biopsies were only taken if the surfactant challenged site has a Dryness Grade below 4.0.
Results: 237 LCM-derived epidermal samples were processed on GeneTitan® U219 chips as described above. Of these, 11 were statistical outliers that were eliminated from the data set. For purposes of statistical treatment, the left and right leg samples from each subject, at each phase of the study, were considered replicates. An ANOVA model was used to determine group differences.

[1] = P2 D5 Dry vs. P2 BL Dry: inherently dry skin
[2] = P2 D5 Healthy vs. P2 BL Healthy: inherently normal moisturized skin

CCCCCCCCCCCCOS(=O)(=O)[O-].[Na+] [SLS, sodium lauryl sulfate]
Significant Beyond Chance [1]: Yes
Number of Probes (significantly different) [1]: 10696
Significant Beyond Chance [2]: Yes
Number of Probes (significantly different) [2]: 6110
Difference in probe expression, paired (within-group) comparison before vs. after SLS treatment (within dry skin or normal/healthy skin groups, summer phase): significant differences
